What was measured:
[1] = molecular target: Macrophage colony-stimulating factor 1 receptor (Homo sapiens, UniProt P07333); experiment: Displacement of kinase tracer 236 from recombinant human His-tagged CSF1R cytoplasmic domain (538 to 910 residues) expressed in baculovirus-infected insect cells measured after 5 hrs by TR-FRET based LanthaScreen assay
[2] = molecular target: Vascular endothelial growth factor receptor 2 (Homo sapiens, UniProt P35968); experiment: Displacement of kinase tracer 236 from recombinant human His-tagged KDR cytoplasmic domain (789 to 1356 residues) expressed in baculovirus-infected insect cells measured after 5 hrs by TR-FRET based LanthaScreen assay
Chain of Vascular endothelial growth factor receptor 2 (P35968 whole entry, the tested form may be a part): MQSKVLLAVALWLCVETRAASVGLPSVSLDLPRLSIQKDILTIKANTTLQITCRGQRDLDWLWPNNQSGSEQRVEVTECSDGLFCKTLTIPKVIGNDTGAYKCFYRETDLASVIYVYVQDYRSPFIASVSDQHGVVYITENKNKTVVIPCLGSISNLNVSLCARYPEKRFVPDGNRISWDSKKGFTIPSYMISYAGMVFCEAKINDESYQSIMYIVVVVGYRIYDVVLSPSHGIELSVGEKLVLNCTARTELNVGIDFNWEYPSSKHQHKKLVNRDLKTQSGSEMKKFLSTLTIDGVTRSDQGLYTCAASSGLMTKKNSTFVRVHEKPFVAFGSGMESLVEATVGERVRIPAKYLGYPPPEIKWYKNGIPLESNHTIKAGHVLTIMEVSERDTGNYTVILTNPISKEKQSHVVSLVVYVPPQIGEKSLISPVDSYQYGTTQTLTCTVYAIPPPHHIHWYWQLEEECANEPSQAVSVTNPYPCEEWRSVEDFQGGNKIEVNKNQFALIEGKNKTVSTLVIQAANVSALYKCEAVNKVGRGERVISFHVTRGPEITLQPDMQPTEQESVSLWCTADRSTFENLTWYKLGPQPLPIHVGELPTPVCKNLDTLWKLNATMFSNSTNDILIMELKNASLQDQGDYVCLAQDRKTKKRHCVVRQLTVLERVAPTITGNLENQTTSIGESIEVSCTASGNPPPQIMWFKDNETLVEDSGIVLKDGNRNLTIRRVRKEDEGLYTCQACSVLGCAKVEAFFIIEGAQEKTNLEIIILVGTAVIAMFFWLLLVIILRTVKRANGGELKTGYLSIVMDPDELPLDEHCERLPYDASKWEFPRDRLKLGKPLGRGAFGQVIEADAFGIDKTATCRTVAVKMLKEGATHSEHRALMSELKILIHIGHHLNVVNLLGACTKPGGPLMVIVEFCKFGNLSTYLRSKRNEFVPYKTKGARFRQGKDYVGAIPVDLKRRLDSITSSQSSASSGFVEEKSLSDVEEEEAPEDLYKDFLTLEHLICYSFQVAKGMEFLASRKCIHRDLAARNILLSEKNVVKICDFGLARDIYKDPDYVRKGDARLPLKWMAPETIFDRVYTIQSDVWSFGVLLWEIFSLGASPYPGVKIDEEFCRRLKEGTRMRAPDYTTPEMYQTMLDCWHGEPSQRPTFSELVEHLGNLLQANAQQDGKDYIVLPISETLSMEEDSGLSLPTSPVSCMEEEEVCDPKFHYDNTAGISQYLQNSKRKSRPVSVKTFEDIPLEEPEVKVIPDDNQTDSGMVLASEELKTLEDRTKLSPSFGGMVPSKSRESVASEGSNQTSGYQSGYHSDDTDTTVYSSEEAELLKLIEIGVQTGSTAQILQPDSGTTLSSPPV

Chain of Macrophage colony-stimulating factor 1 receptor (P07333 whole entry, the tested form may be a part): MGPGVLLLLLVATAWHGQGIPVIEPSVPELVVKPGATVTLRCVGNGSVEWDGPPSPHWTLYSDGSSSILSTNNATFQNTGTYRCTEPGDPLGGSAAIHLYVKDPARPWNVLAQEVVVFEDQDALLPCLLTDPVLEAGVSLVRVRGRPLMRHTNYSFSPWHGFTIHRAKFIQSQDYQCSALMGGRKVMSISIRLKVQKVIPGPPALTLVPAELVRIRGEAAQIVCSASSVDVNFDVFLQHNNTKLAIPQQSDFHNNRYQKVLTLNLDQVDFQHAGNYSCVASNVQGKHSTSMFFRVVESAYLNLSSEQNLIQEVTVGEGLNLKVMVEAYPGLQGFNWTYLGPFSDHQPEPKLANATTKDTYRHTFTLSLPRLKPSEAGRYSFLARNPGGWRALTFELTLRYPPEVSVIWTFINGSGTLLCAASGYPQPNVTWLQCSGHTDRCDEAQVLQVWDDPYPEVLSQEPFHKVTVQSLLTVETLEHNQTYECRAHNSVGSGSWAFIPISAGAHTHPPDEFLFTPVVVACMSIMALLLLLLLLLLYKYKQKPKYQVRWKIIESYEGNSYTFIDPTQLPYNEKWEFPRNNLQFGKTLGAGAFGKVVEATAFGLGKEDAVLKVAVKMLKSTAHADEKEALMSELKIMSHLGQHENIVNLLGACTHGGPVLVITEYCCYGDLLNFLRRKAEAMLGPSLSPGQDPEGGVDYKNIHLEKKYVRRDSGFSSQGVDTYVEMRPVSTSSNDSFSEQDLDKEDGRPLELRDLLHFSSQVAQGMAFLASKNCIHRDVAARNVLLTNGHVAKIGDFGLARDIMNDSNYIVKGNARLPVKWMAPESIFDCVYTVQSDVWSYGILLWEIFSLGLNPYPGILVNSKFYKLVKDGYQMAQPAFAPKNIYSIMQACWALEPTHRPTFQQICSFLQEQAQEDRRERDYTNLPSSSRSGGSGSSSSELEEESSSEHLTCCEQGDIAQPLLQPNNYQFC

SMILES | IC50 [1] | IC50 [2]
Nc1ncnc2c3c(n(-c4ccc(NC(=O)Cc5cc(C(F)(F)F)ccc5F)cc4)c12)CCC3 | < 0.01 µM | > 0.2 µM
CC(C)c1cn(C)c2ccc(CC(=O)Nc3ccc(-n4c5c(c6ncnc(N)c64)CCC5)cc3)cc12 | 0.01 to 0.2 µM | > 0.2 µM
Nc1ncnc2c3c(n(-c4ccc(NC(=O)Cc5cc(C(F)(F)F)ccc5F)c(C(F)(F)F)c4)c12)CCC3 | > 0.2 µM | 
Nc1ncnc2c3c(n(-c4ccc(NC(=O)Cc5ccc(Cl)cc5F)cc4)c12)CCC3 | < 0.01 µM | > 0.2 µM
Nc1ncnc2c3c(n(-c4ccc(NC(=O)Cc5ccnc(C(F)(F)F)c5)cc4)c12)CCC3 | < 0.01 µM | > 0.2 µM
COc1ccc(CC(=O)Nc2ccc(-n3c4c(c5ncnc(N)c53)CCC4)cc2OC)c(F)c1 | < 0.01 µM | > 0.2 µM
COc1cc(CC(=O)Nc2ccc(-n3c4c(c5ncnc(N)c53)CCC4)cc2)ccc1C | < 0.01 µM | > 0.2 µM
COc1cc(-n2c3c(c4ncnc(N)c42)COC3)ccc1NC(=O)Cc1ccc(OC(F)(F)F)cc1 | 0.006 µM | > 0.2 µM
COc1cc(-n2c3c(c4ncnc(N)c42)CCC3)ccc1NC(=O)Cc1ccc2c(c1)CCN2CC(F)(F)F | < 0.01 µM | > 0.2 µM
Nc1ncnc2c3c(n(-c4ccc(NC(=O)Cc5ccc(Cl)nn5)cc4)c12)CCC3 | 0.01 to 0.2 µM | > 0.2 µM
Nc1ncnc2c3c(n(-c4ccc(NC(=O)Cc5ccc(F)cc5)cc4)c12)CCC3 | < 0.01 µM | > 0.2 µM
Cn1ccc2cc(CC(=O)Nc3ccc(-n4c5c(c6ncnc(N)c64)COC5)cc3)ccc21 | 0.01 to 0.2 µM | > 0.2 µM
Nc1ncnc2c3c(n(-c4ccc(NC(=O)Cc5ccc6c(c5)CCN6CC(F)(F)F)cc4)c12)CCC3 | < 0.01 µM | > 0.2 µM
Cn1ccc2cc(CC(=O)Nc3ccc(-n4c5c(c6ncnc(N)c64)CCC5)cc3)ccc21 | 0.004 µM | > 0.2 µM
COc1cc(CC(=O)Nc2ccc(-n3c4c(c5ncnc(N)c53)CCC4)cc2)ccc1F | 0.01 to 0.2 µM | > 0.2 µM
Nc1ncnc2c3c(n(-c4ccc(NC(=O)Cc5cccc(OC(F)(F)F)c5)cc4)c12)CCC3 | < 0.01 µM | > 0.2 µM
COc1ccc(CC(=O)Nc2ccc(-n3c4c(c5ncnc(N)c53)CCC4)cc2)c(OC)c1 | < 0.01 µM | > 0.2 µM
Cc1cc(CC(=O)Nc2ccc(-n3c4c(c5ncnc(N)c53)CCC4)cc2)on1 | 0.01 to 0.2 µM | > 0.2 µM
COc1cccc(CC(=O)Nc2ccc(-n3c4c(c5ncnc(N)c53)CCC4)cc2)c1 | < 0.01 µM | > 0.2 µM
CC(C(=O)Nc1ccc(-n2c3c(c4ncnc(N)c42)CCC3)cc1)c1ccccc1 (stereo not drawn) | 0.01 to 0.2 µM | > 0.2 µM
Nc1ncnc2c3c(n(-c4ccc(NC(=O)Cc5cccc(Cl)c5F)cc4)c12)CCC3 | < 0.01 µM | > 0.2 µM
Nc1ncnc2c3c(n(-c4ccc(NC(=O)Cc5ccc(OC(F)(F)F)cc5)cc4)c12)COC3 | < 0.01 µM | > 0.2 µM
COc1cc(CC(=O)Nc2ccc(-n3c4c(c5ncnc(N)c53)CCC4)cc2)cc(OC)c1 | > 0.2 µM | > 0.2 µM
Nc1ncnc2c3c(n(-c4ccc(NC(=O)Cc5ccc(Cl)cc5)cc4)c12)CCC3 | < 0.01 µM | > 0.2 µM
Nc1ncnc2c3c(n(-c4ccc(CC(=O)Nc5ccccc5)cc4)c12)CCC3 | 0.01 to 0.2 µM | > 0.2 µM

SMILES | IC50 [1] | IC50 [2]
Nc1ncnc2c3c(n(-c4ccc(NC(=O)Cc5cc(Cl)ccc5F)cc4)c12)CCC3 | < 0.01 µM | > 0.2 µM
Nc1ncnc2c3c(n(-c4ccc(NC(=O)Cc5cccc(O)c5)cc4)c12)CCC3 |  | > 0.2 µM
Nc1ncnc2c3c(n(-c4ccc(NC(=O)CC5CCNCC5)cc4)c12)CCC3 | > 0.2 µM | > 0.2 µM
Cc1ccc(CC(=O)Nc2ccc(-n3c4c(c5ncnc(N)c53)COC4)cc2)c(F)c1 | 0.01 to 0.2 µM | > 0.2 µM
COc1ccc(CC(=O)Nc2ccc(-n3c4c(c5ncnc(N)c53)CCC4)cc2)cc1C | < 0.01 µM | > 0.2 µM
COc1ccc(CC(=O)Nc2ccc(-n3c4c(c5ncnc(N)c53)COC4)cc2)cc1C(F)(F)F | < 0.01 µM | > 0.2 µM
Cc1ccc(CC(=O)Nc2ccc(-n3c4c(c5ncnc(N)c53)CCC4)cc2)c(F)c1 | < 0.01 µM | 0.01 to 0.2 µM
Cc1ccc(CC(=O)Nc2ccc(-n3c4c(c5ncnc(N)c53)CCC4)cc2)cc1F | < 0.01 µM | > 0.2 µM
Nc1ncnc2c3c(n(-c4ccc(NC(=O)Cc5ccc(F)cc5C(F)(F)F)cc4)c12)CCC3 | < 0.01 µM | > 0.2 µM
Nc1ncnc2c3c(n(-c4ccc(NC(=O)Cc5nc6ccccc6s5)cc4)c12)CCC3 | 0.01 to 0.2 µM | > 0.2 µM
COc1ccc(CC(=O)Nc2ccc(-n3c4c(c5ncnc(N)c53)CCC4)cc2)cc1C(F)(F)F | < 0.01 µM | > 0.2 µM
Nc1ncnc2c3c(n(-c4ccc(NC(=O)Cc5ccc(Cl)c(C(F)(F)F)c5)cc4)c12)COC3 | < 0.01 µM | > 0.2 µM
COc1ccc(CC(=O)Nc2ccc(-n3c4c(c5ncnc(N)c53)CCC4)cc2)cc1N(C)C | 0.01 to 0.2 µM | > 0.2 µM
COc1cc(-n2c3c(c4ncnc(N)c42)CCC3)ccc1NC(=O)Cc1ccc(C2(O)COC2)cc1 | < 0.01 µM | 
Nc1ncnc2c3c(n(-c4ccc(NC(=O)Cc5ccc(C(F)(F)F)nn5)cc4)c12)CCC3 | 0.01 to 0.2 µM | > 0.2 µM
Nc1ncnc2c3c(n(-c4ccc(NC(=O)Cc5cccc(OC(F)F)c5)cc4)c12)CCC3 | 0.01 to 0.2 µM | > 0.2 µM
Nc1ncnc2c3c(n(-c4ccc(NC(=O)Cc5cc(C(F)(F)F)ccn5)cc4)c12)CCC3 | 0.01 to 0.2 µM | > 0.2 µM
Nc1ncnc2c3c(n(-c4ccc(NC(=O)Cc5ccc(OC(F)(F)F)cc5)cc4)c12)CCC3 |  | > 0.2 µM
COc1cc(-n2c3c(c4ncnc(N)c42)CCC3)ccc1NC(=O)Cc1ccc(OC(F)(F)F)cc1 | < 0.01 µM | > 0.2 µM
COc1cc(-n2c3c(c4ncnc(N)c42)CCC3)ccc1NC(=O)Cc1cc(C)ccc1F | < 0.01 µM | > 0.2 µM
Cc1ccc(F)c(CC(=O)Nc2ccc(-n3c4c(c5ncnc(N)c53)CCC4)cc2)c1 | < 0.01 µM | > 0.2 µM
Nc1ncnc2c3c(n(-c4ccc(CC(=O)Nc5cc(C(F)(F)F)ccc5F)cc4)c12)COC3 | 0.01 to 0.2 µM | > 0.2 µM
Nc1ncnc2c3c(n(-c4ccc(NC(=O)Cc5ccc(C(F)(F)F)nc5)cc4)c12)CCC3 | < 0.01 µM | > 0.2 µM
Nc1ncnc2c3c(n(-c4ccc(NC(=O)Cc5ccccc5)cc4)c12)CCC3 | 0.01 to 0.2 µM | > 0.2 µM
COc1cc(F)c(CC(=O)Nc2ccc(-n3c4c(c5ncnc(N)c53)CCC4)cc2)c(F)c1 | < 0.01 µM | 0.01 to 0.2 µM

SMILES | IC50 [1] | IC50 [2]
COc1ccc(CC(=O)Nc2ccc(-n3c4c(c5ncnc(N)c53)CCC4)cc2)cc1 | < 0.01 µM | > 0.2 µM
COc1ccc(CC(=O)Nc2ccc(-n3c4c(c5ncnc(N)c53)CCC4)cc2)cn1 | < 0.01 µM | > 0.2 µM
COc1ccc(CC(=O)Nc2ccc(-n3c4c(c5ncnc(N)c53)CCC4)cc2)cc1F | < 0.01 µM | > 0.2 µM
COc1ccc(CC(=O)Nc2ccc(-n3c4c(c5ncnc(N)c53)CCC4)cc2)c(F)c1 | < 0.01 µM | > 0.2 µM
Nc1ncnc2c3c(n(-c4ccc(NC(=O)Cc5ccc(Cl)c(Cl)c5)cc4)c12)CCC3 | < 0.01 µM | > 0.2 µM
COc1ccc(CC(=O)Nc2ccc(-n3c4c(c5ncnc(N)c53)CCC4)cc2)nc1 | 0.01 to 0.2 µM | > 0.2 µM
Nc1ncnc2c3c(n(-c4ccc(CC(=O)Nc5cc(C(F)(F)F)ccc5F)cc4)c12)CCC3 | < 0.01 µM | 0.01 to 0.2 µM
COc1cc(-n2c3c(c4ncnc(N)c42)CCC3)ccc1CC(=O)Nc1ccnn1C | > 0.2 µM | 
COc1cc(-n2c3c(c4ncnc(N)c42)CCC3)ccc1CC(=O)Nc1cnn(C(F)F)c1 | 0.01 to 0.2 µM | 
Nc1ncnc2c3c(n(-c4ccc(NC(=O)Cc5ccccc5)c(F)c4)c12)COC3 | > 0.2 µM | > 0.2 µM
COc1cc(CC(=O)Nc2ccc(-n3c4c(c5ncnc(N)c53)COC4)cc2)ccc1C | 0.01 to 0.2 µM | > 0.2 µM
Nc1ncnc2c3c(n(-c4ccc(NC(=O)Cc5ccc6c(c5)CCC6)cc4)c12)CCC3 | < 0.01 µM | > 0.2 µM
COc1cc(-n2c3c(c4ncnc(N)c42)CCC3)ccc1NC(=O)Cc1ccc(OC)c(C(F)(F)F)c1 | 0.01 to 0.2 µM | > 0.2 µM
Cc1ccc(F)c(CC(=O)Nc2ccc(-n3c4c(c5ncnc(N)c53)COC4)cc2)c1 | 0.01 to 0.2 µM | > 0.2 µM
Nc1ncnc2c3c(n(-c4ccc(NC(=O)Cc5ccc(F)cc5Br)cc4)c12)CCC3 | < 0.01 µM | > 0.2 µM
Nc1ncnc2c3c(n(-c4ccc(NC(=O)Cc5cccc(Cl)c5)cc4)c12)CCC3 | < 0.01 µM | > 0.2 µM
COc1ccc(NC(=O)Cc2ccc(-n3c4c(c5ncnc(N)c53)CCC4)cc2OC)nn1 | < 0.01 µM | 
Nc1ncnc2c3c(n(-c4ccc(NC(=O)CCc5c[nH]c6ccccc56)cc4)c12)CCC3 | > 0.2 µM | > 0.2 µM
Nc1ncnc2c3c(n(-c4ccc(NC(=O)c5c[nH]c6ccccc56)cc4)c12)CCC3 | > 0.2 µM | > 0.2 µM
Nc1ncnc2c3c(n(-c4ccc(NC(=O)Cc5cc(C(F)(F)F)ccc5F)c(F)c4)c12)COC3 | 0.01 to 0.2 µM | > 0.2 µM
COc1ccc(CC(=O)Nc2ccc(-n3c4c(c5ncnc(N)c53)CCC4)cc2F)c(F)c1 | 0.01 to 0.2 µM | > 0.2 µM
COc1ccc(CC(=O)Nc2ccc(-n3c4c(c5ncnc(N)c53)COC4)cc2)cc1C | < 0.01 µM | > 0.2 µM
Nc1ncnc2c3c(n(-c4ccc(NC(=O)Cc5ccccc5)cc4F)c12)CCC3 | 0.047 µM | > 0.2 µM
COc1ccc(CC(=O)Nc2ccc(-n3c4c(c5ncnc(N)c53)CCC4)cc2)cc1Br | < 0.01 µM | < 0.01 µM
Nc1ncnc2c3c(n(-c4ccc(NC(=O)Cc5cc(C(F)(F)F)ccc5F)c(F)c4)c12)CCC3 | 0.01 to 0.2 µM | > 0.2 µM
